The target in one test is T1, SGLT2 (Homo sapiens, UniProt P31639).
T1 construct: host or cells: TSA201 (Human Embryonal Kidney) cells, lentiviral transduction, puromycin selection
T1 sequence (P31639 1-672): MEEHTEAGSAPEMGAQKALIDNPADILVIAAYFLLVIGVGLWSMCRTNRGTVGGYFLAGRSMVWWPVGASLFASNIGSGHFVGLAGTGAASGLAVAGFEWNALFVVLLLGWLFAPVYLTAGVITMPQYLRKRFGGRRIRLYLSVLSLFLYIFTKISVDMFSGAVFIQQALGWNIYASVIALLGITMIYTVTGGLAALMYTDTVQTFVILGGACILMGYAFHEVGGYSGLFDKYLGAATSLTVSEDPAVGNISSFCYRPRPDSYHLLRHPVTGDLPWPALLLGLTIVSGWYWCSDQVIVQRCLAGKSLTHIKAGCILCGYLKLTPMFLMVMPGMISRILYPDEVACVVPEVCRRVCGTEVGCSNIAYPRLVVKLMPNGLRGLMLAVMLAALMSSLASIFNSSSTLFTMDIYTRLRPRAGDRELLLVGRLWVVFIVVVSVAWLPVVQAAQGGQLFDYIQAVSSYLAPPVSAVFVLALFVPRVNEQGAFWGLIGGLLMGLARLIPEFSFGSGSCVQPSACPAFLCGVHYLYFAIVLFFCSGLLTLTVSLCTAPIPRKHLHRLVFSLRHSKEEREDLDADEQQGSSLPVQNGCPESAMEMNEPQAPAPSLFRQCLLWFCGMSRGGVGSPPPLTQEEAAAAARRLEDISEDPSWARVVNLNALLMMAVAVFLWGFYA
Nature of the test: SGLT2 inhibition, 2-NBDG glucose uptake in SGLT2-overexpressing TSA201 cells. In kind it is cell-based. The note with it: for factor by which the 2-naphthyl derivative is the stronger inhibitor of SGLT2: comparisons 21a–21b and 24a–24b.

The target of a further test is T2, SGLT1 (Homo sapiens, UniProt P13866).
T2 construct: host or cells: TSA201 (Human Embryonal Kidney) cells, lentiviral transduction, puromycin selection
T2 sequence (P13866 1-664): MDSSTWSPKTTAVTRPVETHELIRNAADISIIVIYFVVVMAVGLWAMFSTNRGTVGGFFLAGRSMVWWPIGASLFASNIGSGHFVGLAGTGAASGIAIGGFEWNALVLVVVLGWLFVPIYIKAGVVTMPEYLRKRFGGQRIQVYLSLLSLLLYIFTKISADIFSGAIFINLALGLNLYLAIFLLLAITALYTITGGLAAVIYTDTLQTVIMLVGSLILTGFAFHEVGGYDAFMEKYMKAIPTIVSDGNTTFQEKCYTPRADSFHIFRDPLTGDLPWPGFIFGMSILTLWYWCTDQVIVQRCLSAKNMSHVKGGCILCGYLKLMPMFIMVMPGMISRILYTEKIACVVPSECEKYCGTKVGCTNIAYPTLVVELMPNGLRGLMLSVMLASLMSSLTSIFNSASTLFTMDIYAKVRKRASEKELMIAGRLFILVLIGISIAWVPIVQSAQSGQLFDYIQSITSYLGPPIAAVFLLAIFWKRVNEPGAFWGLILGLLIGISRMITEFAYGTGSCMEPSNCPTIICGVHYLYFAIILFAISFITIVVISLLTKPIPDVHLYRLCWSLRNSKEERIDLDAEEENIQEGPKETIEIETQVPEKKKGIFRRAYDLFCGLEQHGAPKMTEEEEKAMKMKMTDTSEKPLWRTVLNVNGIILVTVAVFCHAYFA
Kind of test: SGLT1 inhibition, 2-NBDG glucose uptake in SGLT1-overexpressing TSA201 cells. In kind it is cell-based.

Where [1] appears, read: Table 3, TSA-201 cells, NI: no inhibition at 1000 µM.

Structures are written as SMILES. Where two headings read alike, the source gives them in different places.

Method for SGLT1: (§1) These expression vectors contain a puromycin resistance gene.
(§2) Cells (100,000 cells, TSA201) were plated into each well of a 24-well plate and incubated overnight at 37 °C. […] Two wells were treated only with hexadimetrine bromide as a control. After 24 h of transfection, the medium was changed to fresh medium without antibiotics. Cells were collected and transferred into T-25 flasks after 3 days. On the fifth day, 10 µg/mL puromycin was added to select only the transfected cells. The nontransfected cells cannot survive this high concentration of antibiotic. To keep up the selection, the medium including 10 µg/mL puromycin was replaced every two days. The cells lived under puromycin pressure until the day of the experiments.
(§3) TSA201 cells (25,000) with and without overexpressed SGLT1 or 2 were put into poly-L-lysine (P5999, Sigma-Aldrich, St. Luis, MO, USA) treated wells of a 96-well plate. The next day, the cells were starved for 1 h with 90 µL glucose-free medium (D5036-10X1L Sigma-Aldrich, St. Luis, MO, USA) (with or without inhibitor). After starving, cells were treated with 100 µM 2-NBDG and incubated for 30 min (again with or without inhibitor). The incubation time of cells with possible inhibitors was 90 min altogether. After incubation, the medium was removed, the wells were washed with PBS twice, lysed with 100 µL lysis buffer (0.1 M KH2PO4 + 1% Triton-x, pH = 11), and stored at -20°C. […] Subsequently, the protein concentration was measured and NBDG uptake was normalized to protein amount.
(§4) After selecting optimal concentrations, each compound was tested at four different concentrations. […] To determine the specific effects of the compounds on SGLT1 or 2, the glucose uptake values in TSA201 cells without SGLT overexpression were subtracted from the values in TSA201 cell overexpressing SGLT. […] All calculations were prepared using the GraphPad Prism software (GraphPad Software, Inc., SanDiego, CA, USA). The data were plotted on a logarithmic scale as a function of inhibitor concentration. The IC50 values were calculated by non-linear regression analysis from sigmoidal dose-response curves. The results of kinetic experiments were calculated from at least three independent experiments. Each experiment contained four parallel samples that were averaged. The standard deviations were calculated based on the average values for the independent experiments.
Method for SGLT2: as §1, §2, §3, §4

As a reminder, the IC50 is the midpoint of a concentration-inhibition curve. A low value points to higher potency. As to `OC[C@H]1O[C@@H](n2cc(-c3ccccc3)nn2)[C@H](O)[C@@H](O)[C@@H]1O` [21a], the results for the concentration for half-maximal inhibition (IC50) at SGLT2 (setting [1]) and against SGLT1 (setting [1]) were 67.3 ± 10.9 µM and 167 ± 63.5 µM, respectively.
Turning to `OC[C@H]1O[C@@H](c2nc(-c3ccc4ccccc4c3)c[nH]2)[C@H](O)[C@@H](O)[C@@H]1O` [24b, 2-(β-D-glucopyranosyl)-4(5)-(2-naphthyl)-imidazole], the values for the concentration for half-maximal inhibition (IC50) against SGLT2 (setting [1]) and against SGLT1 (setting [1]) were 3.5 ± 0.88 µM and 11.9 ± 2.61 µM, respectively. Besides, at SGLT2, the “factor by which the 2-naphthyl derivative is the stronger inhibitor of SGLT2” value is reported as ~ 26.
Turning to `OC[C@H]1O[C@@H](c2nnc(-c3ccccc3)[nH]2)[C@H](O)[C@@H](O)[C@@H]1O` [25a], the IC50 on SGLT2 (setting [1]) is 15 ± 2.74 µM; against SGLT1 (setting [1]) it was 125 ± 46.5 µM.
`OC[C@H]1O[C@@H](c2nc(-c3ccccc3)c[nH]2)[C@H](O)[C@@H](O)[C@@H]1O` [24a]: the half-inhibitory concentration (IC50) was determined as 91.04 ± 0.56 µM on SGLT2 (setting [1]) and 245 ± 42 µM at SGLT1 (setting [1]).
In the case of `OC[C@H]1O[C@@H](c2nc(-c3ccc4ccccc4c3)cs2)[C@H](O)[C@@H](O)[C@@H]1O` [23b], the IC50 on SGLT2 (setting [1]) and at SGLT1 (setting [1]) was more than 1000 µM in each case.
Consider `OC[C@H]1O[C@@H](n2cc(-c3ccc4ccccc4c3)nn2)[C@H](O)[C@@H](O)[C@@H]1O` [21b], for which the IC50 at SGLT2 (setting [1]) was determined as 10.3 ± 2.18 µM; on SGLT1 (setting [1]), 127 ± 21.6 µM. Moreover, the “factor by which the 2-naphthyl derivative is the stronger inhibitor of SGLT2” value on SGLT2 was ~ 7.
On to `OC[C@H]1O[C@@H](c2nc(-c3ccccc3)cs2)[C@H](O)[C@@H](O)[C@@H]1O` [23a], for which the IC50 at SGLT2 (setting [1]) and at SGLT1 (setting [1]) was more than 1000 µM throughout.
As to `OC[C@H]1O[C@@H](n2cc(Cc3ccccc3)nn2)[C@H](O)[C@@H](O)[C@@H]1O` [compound 20], the figures for the IC50 against SGLT2 and against SGLT1 were 23.2 ± 1.86 µM and 101 ± 23.5 µM, respectively.
For the compound `OC[C@H]1O[C@@H](c2nc(-c3ccc4ccccc4c3)n[nH]2)[C@H](O)[C@@H](O)[C@@H]1O` [25b], the IC50 at SGLT2 (setting [1]) came to 17.7 ± 2.32 µM; on SGLT1 (setting [1]) it was 13 ± 2.88 µM.

(Values after PMC8071193, “Dual-Target Compounds against Type 2 Diabetes Mellitus: Proof of Concept for Sodium Dependent Glucose Transporter (SGLT) and Glycogen Phosphorylase (GP) Inhibitors” (Pharmaceuticals, 2021).)
